Laboratory results published in patent publication US5124334A, “Benzylalcohol phospholipase A2 inhibitors” (Du Pont Merck Pharmaceutical Company, priority 1989, dated 1992).
Structures can show the parent of a compound that is named as a salt.

Tested on: inflammation induced by tetradecanoyl phorbol acetate (TPA)
Test: TPA inflammation inhibition test (TPA-induced mouse ear edema)
Assay type: in vivo, mice
Details: test compound 100 mg/ear applied topically, edema measured four hours later
Text: One such model is the inflammation induced by tetradecanoyl phorbol acetate (TPA), modified from the method of Kuehl et al., Nature, 1977, 265, 170; and Van Arman, Clin. Pharmacol. Ther., 1974, 16, 900. The TPA model mimics many of the inflammatory change which occur in human skin diseases such as psoriasis, since elevated levels of inflammatory arachidonic acid metabolites are found and an influx of polymorphonuclear leukocytes is observed. The test procedure used to evaluate the compounds of Formula (I) is as follows: the test compound (100 mg/ear) is applied to both ears of mice in an appropriate vehicle, such as acetone, and then the inflammatory stimulus (TPA) is applied to the right ear. Four hours later, the edema is measured by removing standard size discs from the ears using a biopsy punch. A control group of animals receives TPA in vehicle applied to the right ear, and vehicle alone to the left ear. The weights of the ear discs are determined, and the suppression of swelling observed in animals treated with the test compound is determined.

Point of comparison: `CC(C)c1ccc2c(c1)CCC1C(C)(CNCCCC(O)c3ccc(F)cc3)CCCC21C.Cl` (stereo not drawn) [Example 2, α-(3-([1,4a-Dimethyl-1,2,3,4,4a,9,10,10a-octahydro-7-(2-propyl)-1-phenanthrenyl]methylamino)propyl)-4-fluorobenzenemethanol Hydrochloride], “% Inhibition of Control Swelling” value 57%. Against it:
- CC(C)c1ccc2c(c1)CCC1C(C)(CNCCC(O)c3ccc(F)cc3)CCCC21C (stereo not drawn) [Example 1, α-(2-[1,4a-Dimethyl-7-(2-propyl)-1,2,3,4,4a,9,10,10a-octahydro-1-phenanthren-1-yl]methylamino)ethyl)-4-fluorobenzenemethanol Hydrochloride] — lower, 46%
- COc1ccc(C(O)CCNCC2(C)CCCC3(C)c4ccc(C(C)C)cc4CCC23)cc1.Cl (stereo not drawn) [Example 12, α-(2-([1,4a-Dimethyl-1,2,3,4,4a,9,10,10a-octahydro-7-(2-propyl)-1-phenanthrenyl]methylamino)-ethyl)-4-methoxybenzenemethanol Hydrochloride] — lower, 27%
